Data published in patent US20060111306A1, “DEHYDROEPHIANDROSTERONE AND UBIQUINONE COMPOSITIONS FOR TREATING ASTHMA AND BRONOCONSTRICTION” (priority 1995, published 2006).

Test system: Intracellular Adenosine in Various Rat Tissues
Assay: In vivo effect on tissue adenosine levels (HPLC of 1,N6-ethenoadenosine)
Design: species or system Fischer 344 rats
Conditions: rats
Experimental: Folinic acid (50 mg/kg) was administered intraperitoneally once daily for fourteen days. […] Hearts were removed from animals and flash frozen in liquid nitrogen with 10 seconds of death. Liver and lungs were removed en bloc and flash frozen with 30 seconds of death. Brain tissue was subsequently dissected.

Nc1nc(=O)c2c([nH]1)NCC(CNc1ccc(C(=O)N[C@@H](CCC(=O)O)C(=O)O)cc1)N2C=O (mixture of isomers) [Folinic Acid (F.A.), Folinic acid]
effect on adenosine levels, administered alone (in words) (folinic acid alone, all organs studied): increase in adenosine levels for all organs studied | effect of co-administration on steroid-mediated adenosine depletion (in words) (folinic acid co-administered with DHEA or methyltestosterone): completely abrogated steroid-mediated adenosine depletion
